Experiments:
[1] = biological target: T1, human recombinant CHRM2 receptor (Homo sapiens, UniProt P08172); test: Radioligand binding assay, CHRM2; conditions: [3H]AF-DX 384 (2 nM), CHO cell membranes, 60 minutes at room temperature; read-out: Ki M2
T1 construct: expressed in transfected cells; host or cells: CHO cells (membranes)
T1 sequence (P08172 1-466): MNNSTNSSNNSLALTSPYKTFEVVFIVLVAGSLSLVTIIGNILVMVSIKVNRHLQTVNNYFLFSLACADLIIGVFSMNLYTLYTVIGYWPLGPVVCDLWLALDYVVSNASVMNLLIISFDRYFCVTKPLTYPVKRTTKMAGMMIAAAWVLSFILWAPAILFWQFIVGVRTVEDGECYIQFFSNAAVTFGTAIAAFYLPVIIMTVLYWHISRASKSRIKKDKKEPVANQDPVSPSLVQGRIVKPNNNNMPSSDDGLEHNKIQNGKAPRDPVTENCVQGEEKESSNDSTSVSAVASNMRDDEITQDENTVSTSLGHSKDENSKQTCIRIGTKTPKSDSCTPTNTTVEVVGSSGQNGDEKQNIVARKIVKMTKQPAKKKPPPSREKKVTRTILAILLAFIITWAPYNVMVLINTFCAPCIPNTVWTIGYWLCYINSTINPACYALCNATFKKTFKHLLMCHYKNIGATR
Procedure: (§1) PD102807 and Compounds A-K at concentrations of 1×10^−9 M, 1×10^−8 M, 1×10^−7 M, 1×10^−6 M, and 1×10^−5 M were tested in standard binding assays with radioligands and cell membranes with receptors. Compound binding was calculated as a percent inhibition of the binding of a radioactively labeled ligand specific for each target, and the Ki values were determined. For CHRM1, the binding assay was performed using [^3H]pirenzepine (2 nM) as a radioligand and membranes of CHO cells with human recombinant CHRM1 receptor. The incubation time was 60 minutes at room temperature. For CHRM2, the binding assay was performed using [^3H]AF-DX 384 (2 nM) as a radioligand and membranes of CHO cells with human recombinant CHRM2 receptor. The incubation time was also 60 minutes at room temperature. For CHRM3, the binding assay was performed using [^3H]4-DAMP (0.2 nM) as a radioligand and membranes of CHO cells with human recombinant CHRM3 receptor. The incubation time was also 60 minutes at room temperature. For CHRM4, the binding assay was performed using [^3H]4-DAMP (0.2 nM) as a radioligand and membranes of CHO cells with human recombinant CHRM4 receptor. The incubation time was also 60 minutes at room temperature. For CHRM5, the binding assay was performed using [^3H]4-DAMP (0.3 nM) as a radioligand and membranes of CHO cells with human recombinant CHRM5 receptor. The incubation time was also 60 minutes at room temperature.

[2] = tested on: PHZ induced hemolytic anemia in C57bl/6 mice; test: PHZ induced hemolytic anemia mouse model, CBC; assay type: in vivo; conditions: 60 mg/kg phenylhydrazine
Procedure: Animal experiments were conducted in the Cold Spring Harbor Laboratory Animal Shared Resource in accordance with Institutional Animal Care and Use Committee-approved procedures. 4-6 weeks old C57bl/6 mice, purchased from Jackson Laboratory and randomly distributed into compound and control treatment groups, were given through oral delivery of PCS1055 (50 mg/kg or 100 mg/kg) twice per day or PD102807 (50 mg/kg or 100 mg/kg) once per day everyday for 3 days. On day 3, mice were intraperitoneally injected with 60 mg/kg PHZ. Mice were then given through oral delivery of PD102807 (50 mg/kg or 100 mg/kg) once per day every day for 2 days. Peripheral blood samples were collected retro-orbitally on day 6 using heparinized capillary tubes in blood collection tubes with K2-EDTA. CBC was performed using Hemavet 950. […] C57bl/6 mice were injected with 60 mg/kg phenylhydrazine to induce hemolysis. Mice were delivered with either vehicle control or Compound A or B (30 mg/kg or 100 mg/kg). Peripheral blood samples were collected retro-orbitally using heparinized capillary tubes into blood collection tubes with K2-EDTA. Complete blood counting was performed using Hemavet 950. Hematocrit (HCT), red blood cell (RBC) and hemoglobin (Hb) values are shown. […] C57bl/6 mice were injected with 60 mg/kg phenylhydrazine to induce hemolysis. Mice were delivered with subcutaneous injection with either vehicle control or Compound B (1.5 mg/kg, 3 mg/kg, or 5 mg/kg) or I (0.5 mg/kg, 0.7 mg/kg, or 1 mg/kg). Peripheral blood samples were collected retro-orbitally using heparinized capillary tubes into blood collection tubes with K2-EDTA. Complete blood counting was performed using Hemavet 950. Hematocrit (HCT), red blood cell (RBC) and hemoglobin (Hb) values are shown.

[3] = biological target: T2, human recombinant CHRM5 receptor (Homo sapiens, UniProt P08912); test: Radioligand binding assay, CHRM5; conditions: [3H]4-DAMP (0.3 nM), CHO cell membranes, 60 minutes at room temperature; read-out: Ki M5
T2 construct: expressed in transfected cells; host or cells: CHO cells (membranes)
T2 sequence (P08912 1-532): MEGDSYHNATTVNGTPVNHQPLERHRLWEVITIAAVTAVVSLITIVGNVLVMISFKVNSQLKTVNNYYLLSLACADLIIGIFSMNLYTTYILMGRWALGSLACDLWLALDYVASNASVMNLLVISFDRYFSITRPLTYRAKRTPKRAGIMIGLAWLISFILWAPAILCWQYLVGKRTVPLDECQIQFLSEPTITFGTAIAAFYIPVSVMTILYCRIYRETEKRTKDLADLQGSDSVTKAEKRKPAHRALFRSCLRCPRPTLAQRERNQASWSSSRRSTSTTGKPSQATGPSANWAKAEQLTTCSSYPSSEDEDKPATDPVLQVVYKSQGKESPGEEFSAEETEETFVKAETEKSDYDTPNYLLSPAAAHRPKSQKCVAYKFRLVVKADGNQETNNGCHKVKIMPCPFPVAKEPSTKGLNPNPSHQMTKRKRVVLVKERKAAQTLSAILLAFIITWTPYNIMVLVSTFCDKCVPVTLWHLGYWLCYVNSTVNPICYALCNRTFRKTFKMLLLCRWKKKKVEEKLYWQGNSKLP
Procedure: as §1

[4] = biological target: T3, CHRM4 (Homo sapiens, UniProt P08173); test: Radioligand binding assay, CHRM4; design: expressed in transfected cells; host or cells: CHO cells (membranes); conditions: [3H]4-DAMP (0.2 nM), CHO cell membranes, 60 minutes at room temperature; read-out: Ki M4
T3 sequence (P08173 1-479): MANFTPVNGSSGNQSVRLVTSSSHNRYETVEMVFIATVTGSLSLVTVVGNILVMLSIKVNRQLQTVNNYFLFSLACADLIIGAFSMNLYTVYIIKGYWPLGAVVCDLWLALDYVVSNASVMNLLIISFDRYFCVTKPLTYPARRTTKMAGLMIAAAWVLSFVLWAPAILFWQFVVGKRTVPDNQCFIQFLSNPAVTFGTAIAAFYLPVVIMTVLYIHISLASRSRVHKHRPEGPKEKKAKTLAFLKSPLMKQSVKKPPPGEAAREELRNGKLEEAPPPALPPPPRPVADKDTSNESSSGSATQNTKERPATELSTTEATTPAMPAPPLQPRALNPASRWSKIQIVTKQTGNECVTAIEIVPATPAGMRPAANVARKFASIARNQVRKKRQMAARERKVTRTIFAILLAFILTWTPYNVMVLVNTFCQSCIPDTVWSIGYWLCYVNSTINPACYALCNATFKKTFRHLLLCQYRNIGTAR
Procedure: as §1

[5] = biological target: T4, human recombinant CHRM1 receptor (Homo sapiens, UniProt P11229); test: Radioligand binding assay, CHRM1; conditions: [3H]pirenzepine (2 nM), CHO cell membranes, 60 minutes at room temperature; read-out: Ki M1
T4 construct: expressed in transfected cells; host or cells: CHO cells (membranes)
T4 sequence (P11229 1-460): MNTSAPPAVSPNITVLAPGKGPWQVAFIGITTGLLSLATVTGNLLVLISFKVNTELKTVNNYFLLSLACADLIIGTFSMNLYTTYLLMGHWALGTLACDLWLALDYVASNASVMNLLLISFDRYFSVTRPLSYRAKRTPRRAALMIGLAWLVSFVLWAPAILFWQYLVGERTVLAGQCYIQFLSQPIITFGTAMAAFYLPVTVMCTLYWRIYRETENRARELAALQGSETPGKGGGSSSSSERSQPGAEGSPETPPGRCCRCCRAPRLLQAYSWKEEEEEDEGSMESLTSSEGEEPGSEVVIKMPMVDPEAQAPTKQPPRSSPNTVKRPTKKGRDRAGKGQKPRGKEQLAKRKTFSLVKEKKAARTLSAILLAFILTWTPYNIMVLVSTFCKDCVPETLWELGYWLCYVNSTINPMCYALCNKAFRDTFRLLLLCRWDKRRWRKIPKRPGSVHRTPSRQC
Procedure: as §1

Row | Ki [1] | Ki [3] | Ki [4] | Ki [5] | Compound | treatment of anemia in vivo (HCT, RBC, Hb) ([2]; 30 mg/kg or 100 mg/kg, C57bl/6 mice) | treatment of anemia in vivo (HCT, RBC, Hb) ([2]; subcutaneous injection, B 1.5, 3 or 5 mg/kg, I 0.5, 0.7 or 1 mg/kg)
1 | 2.2 µM | 3.5 µM | 1.8 µM | – | CCOC(=O)c1c(C)[nH]c2ccc3c(c12)C[N+]1(C)CCc2cc(OC)ccc2C1O3 (single isomer, unassigned) [Compound A, 1-(ethoxycarbonyl)-9-methoxy-2,13-dimethyl-3,6a,11,12,13,14-hexahydroindolo[4′,5′:5,6][1,3]oxazino[2,3-a]isoquinolin-13-ium Iodide] | treat anemia in vivo | –
2 | 1.7 µM | 10 µM | 0.74 µM | 8.5 µM | CCOC(=O)c1c(C)n(C)c2ccc3c(c12)C[N+]1(C)CCc2cc(OC)ccc2C1O3 (single isomer, unassigned) [Compound I, 1-(ethoxycarbonyl)-9-methoxy-2,3,13-trimethyl-3,6a,11,12,13,14-hexahydroindolo[4′,5′:5,6][1,3]oxazino[2,3-a]isoquinolin-13-ium Iodide] | – | treat anemia in vivo
